From the supplement of paper PMC9663587

Key:
CAL120 = assay: GRmax, 72 h; higher = less effect;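 also: breast cell lines in 384-well plates, nine doses across a 10^4 range, Dye Drop imaging of viable cells vs DMSO and time-zero plates, GR 0 means no net growth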
HCC1395 = assay: GRmax, 72 h; higher = less effect;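 also: breast cell lines in 384-well plates, nine doses across a 10^4 range, Dye Drop imaging of viable cells vs DMSO and time-zero plates, GR 0 means no net growth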
HCC1954 = assay: GRmax, 72 h; higher = less effect;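 also: breast cell lines in 384-well plates, nine doses across a 10^4 range, Dye Drop imaging of viable cells vs DMSO and time-zero plates, GR 0 means no net growth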
HCC202 = assay: GRmax, 72 h; higher = less effect;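 also: breast cell lines in 384-well plates, nine doses across a 10^4 range, Dye Drop imaging of viable cells vs DMSO and time-zero plates, GR 0 means no net growth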
HCC70 = assay: GRmax, 72 h; higher = less effect
HTERT_HME1 = assay: GRmax, 72 h; higher = less effect
SUM190PT = assay: GRmax, 72 h; higher = less effect
MCF10A (GM) = assay: area over the GR curve, 72 h; higher = more effect;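 also: Dye Drop or Deep Dye Drop imaging of viable cells in 384-well plates (Hoechst nuclei, LIVE/DEAD dye), nine half-log doses, GR normalized to DMSO controls and time-zero plates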
PDX1206 = assay: area over the GR curve, 72 h; higher = more effect;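 also: Dye Drop or Deep Dye Drop imaging of viable cells in 384-well plates (Hoechst nuclei, LIVE/DEAD dye), nine half-log doses, GR normalized to DMSO controls and time-zero plates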
HCC1428 = assay: area over the GR curve, 72 h; higher = more effect;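 also: Dye Drop or Deep Dye Drop imaging of viable cells in 384-well plates (Hoechst nuclei, LIVE/DEAD dye), nine half-log doses, GR normalized to DMSO controls and time-zero plates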
HCC1500 = assay: area over the GR curve, 72 h; higher = more effect;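 also: Dye Drop or Deep Dye Drop imaging of viable cells in 384-well plates (Hoechst nuclei, LIVE/DEAD dye), nine half-log doses, GR normalized to DMSO controls and time-zero plates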
MDAMB157 = assay: area over the GR curve, 72 h; higher = more effect

COc1ccc2c(c1)[C@]1(C[C@H]1c1ccc3c(/C=C/c4ccc(CN5C[C@@H](C)O[C@@H](C)C5)cc4)n[nH]c3c1)C(=O)N2
GRmax, 72 h (CAL120): 0.175 GR
GRmax, 72 h (HCC1395): -0.178 GR
GRmax, 72 h (HCC1954): -0.209 GR
GRmax, 72 h (HCC202): 0.493 GR
GRmax, 72 h (HCC70): -0.31 GR
GRmax, 72 h (HTERT_HME1): -0.106 GR
GRmax, 72 h (SUM190PT): 0.12 GR
area over the GR curve (MCF10A (GM)): 0.507 GR
area over the GR curve (PDX1206): 0.504 GR

COc1cccc(OCCCN)c1-c1cc(Nc2cnc(C#N)cn2)n[nH]1
GRmax, 72 h (CAL120): 0.317 GR
GRmax, 72 h (HCC1395): -0.491 GR
GRmax, 72 h (HCC1954): -0.312 GR
GRmax, 72 h (HCC202): 0.0486 GR
GRmax, 72 h (HCC70): -0.639 GR
GRmax, 72 h (HTERT_HME1): -0.0816 GR
GRmax, 72 h (SUM190PT): -0.101 GR
area over the GR curve (MCF10A (GM)): 0.245 GR
area over the GR curve (PDX1206): 0.427 GR

CC(=O)Nc1cccc(-n2c(=O)n(C3CC3)c(=O)c3c(Nc4ccc(I)cc4F)n(C)c(=O)c(C)c32)c1 (max 1 µM)
GRmax, 72 h (CAL120): 0.415 GR
GRmax, 72 h (HCC1395): 0.45 GR
GRmax, 72 h (HCC1954): 0.229 GR
GRmax, 72 h (HCC202): 0.526 GR
GRmax, 72 h (HCC70): -0.0393 GR
GRmax, 72 h (HTERT_HME1): 0.203 GR
GRmax, 72 h (SUM190PT): 0.744 GR
area over the GR curve (HCC1428): 0.0695 GR
area over the GR curve (HCC1500): 0.212 GR
area over the GR curve (MDAMB157): 0.301 GR

CCc1cnn2c(NCc3ccc[n+]([O-])c3)cc(N3CCCC[C@H]3CCO)nc12 (max 1 µM)
GRmax, 72 h (CAL120): -0.132 GR
GRmax, 72 h (HCC1395): -0.497 GR
GRmax, 72 h (HCC1954): -0.464 GR
GRmax, 72 h (HCC202): 0.0907 GR
GRmax, 72 h (HCC70): -0.909 GR
GRmax, 72 h (HTERT_HME1): -0.285 GR
GRmax, 72 h (SUM190PT): -0.659 GR
area over the GR curve (HCC1428): 0.656 GR
area over the GR curve (HCC1500): 0.662 GR
area over the GR curve (MDAMB157): 0.765 GR

CC(=O)c1c(C)c2cnc(Nc3ccc(N4CCNCC4)cn3)nc2n(C2CCCC2)c1=O (max 3.162 µM)
GRmax, 72 h (CAL120): 0.669 GR
GRmax, 72 h (HCC1395): 0.348 GR
GRmax, 72 h (HCC1954): 0.526 GR
GRmax, 72 h (HCC202): 0.691 GR
GRmax, 72 h (HCC70): 0.936 GR
GRmax, 72 h (HTERT_HME1): 0.257 GR
GRmax, 72 h (SUM190PT): 0.347 GR
area over the GR curve (HCC1428): 0.314 GR
area over the GR curve (HCC1500): 0.11 GR
area over the GR curve (MDAMB157): -0.0037 GR

CCc1cncnc1N1CCN(Cc2nc3ccc(C(F)(F)F)cc3[nH]2)CC1 (max 10 µM)
GRmax, 72 h (CAL120): 0.924 GR
GRmax, 72 h (HCC1395): 0.659 GR
GRmax, 72 h (HCC1954): 0.835 GR
GRmax, 72 h (HCC202): 0.673 GR
GRmax, 72 h (HCC70): 0.935 GR
GRmax, 72 h (HTERT_HME1): 0.455 GR
GRmax, 72 h (SUM190PT): 0.461 GR
area over the GR curve (HCC1428): -0.0224 GR
area over the GR curve (HCC1500): 0.182 GR
area over the GR curve (MDAMB157): 0.119 GR

CCN1CCN(Cc2ccc(Nc3ncc(F)c(-c4cc(F)c5nc(C)n(C(C)C)c5c4)n3)nc2)CC1 (max 10 µM)
GRmax, 72 h (CAL120): -0.141 GR
GRmax, 72 h (HCC1395): -0.52 GR
GRmax, 72 h (HCC1954): -0.505 GR
GRmax, 72 h (HCC202): 0.3 GR
GRmax, 72 h (HCC70): -0.826 GR
GRmax, 72 h (HTERT_HME1): 0.0156 GR
GRmax, 72 h (SUM190PT): -0.582 GR
area over the GR curve (HCC1428): 0.636 GR
area over the GR curve (HCC1500): 0.342 GR
area over the GR curve (MDAMB157): 0.266 GR

Cc1nn(C)c(COc2ccc(N3CCN(S(=O)(=O)N(C)C)CC3)cc2)c1-c1cccc2c(CCCOc3cccc4ccccc34)c(C(=O)O)n(CCN3CCOCC3)c12 (max 10 µM)
GRmax, 72 h (CAL120): 0.943 GR
GRmax, 72 h (HCC1395): 0.859 GR
GRmax, 72 h (HCC1954): 0.884 GR
GRmax, 72 h (HCC202): 0.828 GR
GRmax, 72 h (HCC70): 0.938 GR
GRmax, 72 h (HTERT_HME1): -0.422 GR
GRmax, 72 h (SUM190PT): 0.114 GR
area over the GR curve (HCC1428): -0.0325 GR
area over the GR curve (HCC1500): -0.063 GR
area over the GR curve (MDAMB157): 0.0057 GR

CN(C)CC[C@H](CSc1ccccc1)Nc1ccc(S(=O)(=O)NC(=O)c2ccc(N3CCN(Cc4ccccc4-c4ccc(Cl)cc4)CC3)cc2)cc1[N+](=O)[O-] [ABT-737] (max 10 µM)
GRmax, 72 h (CAL120): -0.434 GR
GRmax, 72 h (HCC1395): 0.861 GR
GRmax, 72 h (HCC1954): 0.496 GR
GRmax, 72 h (HCC202): 0.588 GR
GRmax, 72 h (HCC70): -0.0638 GR
GRmax, 72 h (HTERT_HME1): 0.495 GR
GRmax, 72 h (SUM190PT): -0.475 GR
area over the GR curve (HCC1428): 0.111 GR
area over the GR curve (HCC1500): 1.13 GR
area over the GR curve (MDAMB157): 0.0446 GR
